Data taken from US20250041429A1, “COMPOUND HAVING BTK PROTEIN DEGRADATION ACTIVITY, AND MEDICAL USES THEREOF” (UBIX THERAPEUTICS, INC., priority 2021, published 2025).

Target: T1, BTK protein (Homo sapiens, UniProt Q06187)
T1 construct: endogenous in cells; host or cells: TMD-8 cells
Assay: Measurement of BTK protein degradation ability in TMD-8 cells (Western blotting)
Type: cell-based
Details: harvested after 24 hours; for BTK degradation (%) 1 nM: compound 1 nM; for BTK degradation (%) 10 nM: compound 10 nM; for BTK degradation (%) 100 nM: compound 100 nM
In short: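 BTK levels were measured by immunoblotting of equal-protein RIPA lysates, normalized to GAPDH or β-actin, with chemiluminescent or infrared detection. Lysates came from TMD-8 cells exposed to compound for 24 h at final concentrations of 0.1, 1, 10 μM or 0.0001–0.1 μM, against a DMSO control.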

T1 sequence (Q06187 whole entry): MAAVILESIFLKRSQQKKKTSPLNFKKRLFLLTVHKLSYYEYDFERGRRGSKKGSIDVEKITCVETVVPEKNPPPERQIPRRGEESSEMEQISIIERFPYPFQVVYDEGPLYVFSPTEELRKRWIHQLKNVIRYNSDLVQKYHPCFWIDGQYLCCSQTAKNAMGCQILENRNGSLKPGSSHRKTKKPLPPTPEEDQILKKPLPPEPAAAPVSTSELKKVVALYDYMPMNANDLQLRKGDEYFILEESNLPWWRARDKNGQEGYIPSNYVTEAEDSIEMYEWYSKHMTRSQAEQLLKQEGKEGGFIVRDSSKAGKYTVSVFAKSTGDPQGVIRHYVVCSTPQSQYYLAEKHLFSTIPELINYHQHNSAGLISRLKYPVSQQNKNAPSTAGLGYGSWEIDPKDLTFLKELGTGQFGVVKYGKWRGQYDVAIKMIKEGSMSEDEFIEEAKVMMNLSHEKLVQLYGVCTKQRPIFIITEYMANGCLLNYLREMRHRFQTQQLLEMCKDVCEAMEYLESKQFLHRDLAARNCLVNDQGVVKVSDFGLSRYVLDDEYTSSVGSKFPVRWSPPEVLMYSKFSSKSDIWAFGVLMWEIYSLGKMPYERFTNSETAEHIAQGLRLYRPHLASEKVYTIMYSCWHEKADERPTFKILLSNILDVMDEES

Row | BTK degradation (%) 1 nM | BTK degradation (%) 10 nM | BTK degradation (%) 100 nM | SMILES
1 | 67.5% | 94.0% | 98.5% | Cc1cc(-c2ccnc(Nc3ccc(N4CCN(CC5CCN(C(=O)c6cccc(NC7CCC(=O)NC7=O)c6)CC5)CC4)cc3)n2)ccc1CNC(=O)c1cn(C(C)(C)C)nn1 (stereo not drawn) [Example 97]
2 | 71.0% | 95.5% | 98.5% | Cc1cc(-c2ccnc(Nc3ccc(N4CCN(CC5CN(C(=O)c6cccc(NC7CCC(=O)NC7=O)c6)C5)CC4)cc3)n2)ccc1CNC(=O)c1cn(C(C)(C)C)nn1 (stereo not drawn) [Example 98, 1-(tert-butyl)-N-(4-(2-((4-(4-((1-(3-((2,6-dioxopiperidin-3-yl)amino)benzoyl)azetidin-3-yl)methyl)piperazin-1-yl)phenyl)amino)pyrimidin-4-yl)-2-methylbenzyl)-1H-1,2,3-triazole-4-carboxamide]
3 | 46.5% | 92.0% | 98.5% | Cc1cc(-c2ccnc(Nc3ccc(C4CCN(CC5CCN(C(=O)c6cccc(NC7CCC(=O)NC7=O)c6)CC5)CC4)cc3)n2)ccc1CNC(=O)N1CC(OC(C)C)C1 (stereo not drawn) [Example 99, N-(4-(2-((4-(1-((1-(3-((2,6-dioxopiperidin-3-yl)amino)benzoyl)piperidin-4-yl)methyl)piperidin-4-yl)phenyl)amino)pyrimidin-4-yl)-2-methylbenzyl)-3-isopropoxyazetidine-1-carboxamide]
4 | 19.0% | 82.5% | 94.0% | Cc1cc(-c2ccnc(Nc3ccc(N4CCN(CC5CCN(C(=O)c6cccc(OC7CCC(=O)NC7=O)c6)CC5)CC4)cc3)n2)ccc1CNC(=O)N1CC(OC(C)C)C1 (stereo not drawn) [Example 102, N-(4-(2-((4-(4-((1-(3-((2,6-dioxopiperidin-3-yl)oxy)benzoyl)piperidin-4-yl)methyl)piperazin-1-yl)phenyl)amino)pyrimidin-4-yl)-2-methylbenzyl)-3-isopropoxyazetidine-1-carboxamide]
5 | −12.5% | 69.0% | 97.0% | Cc1cc(-c2ccnc(Nc3ccc(N4CCN(C5CCN(C(=O)c6cccc(NC7CCC(=O)NC7=O)c6)CC5)CC4)cc3)n2)ccc1CNC(=O)N1CC(OC(C)C)C1 (stereo not drawn) [Example 103, N-(4-(2-((4-(4-(1-(3-((2,6-dioxopiperidin-3-yl)amino)benzoyl)piperidin-4-yl)piperazin-1-yl)phenyl)amino)pyrimidin-4-yl)-2-methylbenzyl)-3-isopropoxyazetidine-1-carboxamide]
6 | −9.0% | 39.0% | 95.5% | Cc1cc(-c2ccnc(Nc3ccc(C4CCN(C5CCN(C(=O)c6cccc(NC7CCC(=O)NC7=O)c6)CC5)CC4)cc3)n2)ccc1CNC(=O)N1CC(OC(C)C)C1 (stereo not drawn) [Example 104, N-(4-(2-((4-(1′-(3-((2,6-dioxopiperidin-3-yl)amino)benzoyl)-[1,4′-bipiperidin]-4-yl)phenyl)amino)pyrimidin-4-yl)-2-methylbenzyl)-3-isopropoxyazetidine-1-carboxamide]
7 | 35% | 91.5% | 98% | Cc1cc(-c2ccnc(Nc3ccc(N4CCN(CC5CCN(CC(=O)Nc6cccc(NC7CCC(=O)NC7=O)c6)CC5)CC4)cc3)n2)ccc1CNC(=O)N1CC(OC(C)C)C1 (stereo not drawn) [Example 105, N-(4-(2-((4-(4-((1-(2-((3-((2,6-dioxopiperidin-3-yl)amino)phenyl)amino)-2-oxoethyl)piperidin-4-yl)methyl)piperazin-1-yl)phenyl)amino)pyrimidin-4-yl)-2-methylbenzyl)-3-isopropoxyazetidine-1-carboxamide]
8 | 41.5% | 94.0% | 99.5% | Cc1cc(-c2ccnc(Nc3ccc(N4CCN(C5CCN(c6ccc7c(c6)C(=O)N(C6CCC(=O)NC6=O)C7=O)CC5)CC4)cc3)n2)ccc1CNC(=O)N1CC(OC(C)C)C1 (stereo not drawn) [Example 109, N-(4-(2-((4-(4-(1-(2-(2,6-dioxopiperidin-3-yl)-1,3-dioxoisoindolin-5-yl)piperidin-4-yl)piperazin-1-yl)phenyl)amino)pyrimidin-4-yl)-2-methylbenzyl)-3-isopropoxyazetidine-1-carboxamide]

Second part, the compound before the results:

Row | SMILES | BTK degradation (%) 1 nM | BTK degradation (%) 10 nM | BTK degradation (%) 100 nM
9 | Cc1cc(-c2ccnc(Nc3ccc(C4CCN(CC5CN(C(=O)c6cccc(NC7CCC(=O)NC7=O)c6)C5)CC4)cc3)n2)ccc1CNC(=O)N1CC(OC(C)C)C1 (stereo not drawn) [Example 100, N-(4-(2-((4-(1-((1-(3-((2,6-dioxopiperidin-3-yl)amino)benzoyl)azetidin-3-yl)methyl)piperidin-4-yl)phenyl)amino)pyrimidin-4-yl)-2-methylbenzyl)-3-isopropoxyazetidine-1-carboxamide] | 40.5% | 91.0% | 98.0%
10 | Cc1cc(-c2ccnc(Nc3ccc(C4CN(CC5CCN(C(=O)c6cccc(NC7CCC(=O)NC7=O)c6)CC5)C4)cc3)n2)ccc1CNC(=O)N1CC(OC(C)C)C1 (stereo not drawn) [Example 101, N-(4-(2-((4-(1-((1-(3-((2,6-dioxopiperidin-3-yl)amino)benzoyl)piperidin-4-yl)methyl)azetidin-3-yl)phenyl)amino)pyrimidin-4-yl)-2-methylbenzyl)-3-isopropoxyazetidine-1-carboxamide] | 50.5% | 98.0% | 100.0%
11 | Cc1c(NC(=O)N2CC(OC(C)C)C2)cc(F)cc1-c1ccnc(Nc2ccc(N3CCN(CC4CCN(CC(=O)Nc5cccc(NC6CCC(=O)NC6=O)c5)CC4)CC3)cc2)n1 (stereo not drawn) [Example 106, N-(3-(2-((4-(4-((1-(2-((3-((2,6-dioxopiperidin-3-yl)amino)phenyl)amino)-2-oxoethyl)piperidin-4-yl)methyl)piperazin-1-yl)phenyl)amino)pyrimidin-4-yl)-5-fluoro-2-methylphenyl)-3-isopropoxyazetidine-1-carboxamide] | 1% | 20% | 76%
12 | Cc1cc(-c2ccnc(Nc3ccc(N4CCN(CC5CN(c6ccc7c(n6)CN(C6CCC(=O)NC6=O)C7=O)C5)CC4)cc3)n2)ccc1CNC(=O)N1CC(OC(C)C)C1 (stereo not drawn) [Example 107, N-(4-(2-((4-(4-((1-(6-(2,6-dioxopiperidin-3-yl)-5-oxo-6,7-dihydro-5H-pyrrolo[3,4-b]pyridin-2-yl)azetidin-3-yl)methyl)piperazin-1-yl)phenyl)amino)pyrimidin-4-yl)-2-methylbenzyl)-3-isopropoxyazetidine-1-carboxamide] | 63.5% | 95% | 98%
13 | Cc1c(NC(=O)N2CC(OC(C)C)C2)cc(F)cc1-c1ccnc(Nc2ccc(N3CCN(CC4CN(c5ccc6c(n5)CN(C5CCC(=O)NC5=O)C6=O)C4)CC3)cc2)n1 (stereo not drawn) [Example 108, N-(3-(2-((4-(4-((1-(6-(2,6-dioxopiperidin-3-yl)-5-oxo-6,7-dihydro-5H-pyrrolo[3,4-b]pyridin-2-yl)azetidin-3-yl)methyl)piperazin-1-yl)phenyl)amino)pyrimidin-4-yl)-5-fluoro-2-methylphenyl)-3-isopropoxyazetidine-1-carboxamide] | 21.5% | 73% | 94.5%
